# Measured values reported in patent US7214696B2, “Compositions and methods for stabilizing transthyretin and inhibiting transthyretin misfolding” (The Scripps Research Institute, priority 2002, dated 2007).
# Assays:
# [1] = biological target: T1, TTR in human blood plasma (Homo sapiens, UniProt P02766); assay: Immunoprecipitation/HPLC binding stoichiometry of PCBs and OH-PCBs in plasma, Example 4; set-up: from tissue; host or cells: human blood plasma from healthy volunteers; details: post-wash lower limit; for Equivalents Bound: PCB 10.8 μM in human blood plasma, TTR ≈5 μM; for Equivalents Bound (Plasma): OH-PCB 10.8 μM in human blood plasma
# [2] = biological target: T1, TTR in human blood plasma; assay: Plasma selectivity: antibody capture/HPLC binding stoichiometry, Example 2; details: 10.8 μM inhibitor in human plasma, 37° C., 24 h; post-wash lower limit; maximum 2 per TTR tetramer
Compound,Plasma Selectivity (equiv bound) [2],also measured
"2′,4′-Difluorobiphenyl-3-ol [Compound 2]",–,Equivalents Bound [1]: 0.18 ± 0.03
2′-Fluorobiphenyl-4-carboxylic acid [Compound 16],–,Equivalents Bound (Plasma) [1]: 1.86 ± 0.14
"3′,5′-Difluorobiphenyl-3-carboxylic acid [Compound 17]",–,Equivalents Bound (Plasma) [1]: 1.63 ± 0.05
"Oc1ccc(-c2ccc(F)cc2F)cc1 [Compound 3, 2′,4′-Difluorobiphenyl-4-ol]",–,Equivalents Bound [1]: 1.50 ± 0.42
O=C(O)c1cccc2oc(-c3cc(Cl)cc(Cl)c3)nc12 [Compound 5],–,Equivalents Bound [1]: 0.06 ± 0.04
"Oc1cccc(-c2cc(F)cc(F)c2)c1 [Compound 8, 3′,5′-Difluorobiphenyl-3-ol]",0.18 ± 0.05 equiv bound,–
"O=C(O)c1ccc(-c2ccc(F)cc2F)cc1 [Compound 12, 2′,4′-Difluorobiphenyl-4-carboxylic acid]",0.20 ± 0.05 equiv bound,–
"O=C(O)c1cccc(-c2ccccc2F)c1 [Compound 15, 2′-Fluorobiphenyl-3-carboxylic acid]",none observed,–
"O=C(O)c1cccc(-c2cc(F)cc(F)c2)c1 [Compound 17, 3′,5′-Difluorobiphenyl-3-carboxylic acid]",0.23 ± 0.00 equiv bound,–
"O=C(O)c1cccc(-c2c(F)cccc2F)c1 [Compound 19, 2′,6′-Difluorobiphenyl-3-carboxylic acid]",0.29 ± 0.12 equiv bound,–
"O=C(O)c1cc(-c2ccc(F)cc2)ccc1O [Compound 23, 4′-Fluoro-4-hydroxybiphenyl-3-carboxylic acid]",0.09 ± 0.00 equiv bound,–
"O=C(O)c1cc(-c2ccccc2F)ccc1O [Compound 24, 2′-Fluoro-4-hydroxybiphenyl-3-carboxylic acid]",0.07 ± 0.02 equiv bound,–
"O=C(O)c1cc(-c2cc(F)cc(F)c2)ccc1O [Compound 25, 3′,5′-Difluoro-4-hydroxybiphenyl-3-carboxylic acid]",none observed,–
"O=C(O)c1cc(-c2ccc(Cl)cc2Cl)ccc1O [Compound 26, 2′,4′-Dichloro-4-hydroxybiphenyl-3-carboxylic acid]",0.27 ± 0.02 equiv bound,–
"O=C(O)c1cc(-c2ccccc2)ccc1O [Compound 27, 4-Hydroxybiphenyl-3-carboxylic acid]",none observed,–
"O=C(O)c1cccc(-c2cc(F)c(O)c(F)c2)c1 [Compound 28, 3′,5′-Difluoro-4′-hydroxybiphenyl-3-carboxylic acid]",none observed,–
"O=C(O)c1ccc(-c2cc(F)c(O)c(F)c2)cc1 [Compound 29, 3′,5′-Difluoro-4′-hydroxybiphenyl-4-carboxylic acid]",0.07 ± 0.02 equiv bound,–
"O=C(O)c1cccc(-c2cc(Cl)c(O)c(Cl)c2)c1 [Compound 30, 3′,5′-Dichloro-4′-hydroxybiphenyl-3-carboxylic acid]",0.12 ± 0.02 equiv bound,–
"O=C(O)c1ccc(-c2cc(Cl)c(O)c(Cl)c2)cc1 [Compound 31, 3′,5′-Dichloro-4′-hydroxybiphenyl-4-carboxylic acid]",0.26 ± 0.04 equiv bound,–
"OCc1ccccc1-c1cc(Cl)cc(Cl)c1 [Compound 50, 3′,5′-Dichlorobiphenyl-2-yl-methanol]",none observed,–
"O=C(O)c1cc(-c2ccc(F)cc2F)ccc1O [diflunisal, reference compound]",–,Equivalents Bound [1]: 0.62 ± 0.12
